4 compounds from the NIST ThermoML archive (doi:10.1016/j.jct.2019.05.005) can be followed below.

Numbers after ± are expanded uncertainties.

For this series the following is noted: Liquid; Ebulliometric method (Recirculating still).
For the compound `CCC(C)OC(C)=O` (centres undefined) [1-methylpropyl ethanoate], the Normal boiling temperature is 112.18 ± 1 °C.

As for `CC(=O)N(C)C` [N,N-dimethylethanamide], the Normal boiling temperature worked out at 165.80 ± 1 °C. For `C[S+](C)[O-]` [dimethyl sulfoxide] the value was 190.02 ± 1 °C; for `CCC(C)O` (centres undefined) [butan-2-ol], 99.48 ± 1 °C.
